From patent US8389563B2, “C-substituted diindolylmethane compositions and methods for the treatment of multiple cancers” (The Texas A&M University System, priority 2000, dated 2013)
Entries after “also recorded” stand apart in the source; their conditions may differ. Read-outs that look alike come from different tables or passages of the source. Marks after values point to notes of the source that are not given here.

How the values were obtained:
[1] = test system: mitogen-activated protein kinase (MAPKK); assay: MAPKK-induced pSRE reporter activity in MCF-7 cells; format: cell-based; conditions: 1 or 5 μM, MCF-7 cells transfected with pMAPKK and pSRE
From the text: Therefore, we have been investigating the inhibitory effects of DIMs on kinase activities and our initial studies have examined inhibition of mitogen-activated protein kinase (MAPKK) which regulates expression of multiple genes involved in cell proliferation. MCF-7 cells are transfected with a constitutively active MAPKK expression plasmid (pMAPKK), and induction of activity is monitored through activation of the construct pSRE which contains a MAPKK-inducible serum response element (SRE) from the cfos protooncogene (Duan et al., “Estrogen receptor-mediated activation of the serum response element in MCF-7 cells through MAPK-dependent phosphorylation of Elk-1” J. Biol. Chem. 276:11590 11598, 2001).

Ah receptor = target: T1, Ah receptor (Rattus norvegicus, UniProt P41738); assay: Ah receptor competitive binding
T1 sequence (P41738 10-853): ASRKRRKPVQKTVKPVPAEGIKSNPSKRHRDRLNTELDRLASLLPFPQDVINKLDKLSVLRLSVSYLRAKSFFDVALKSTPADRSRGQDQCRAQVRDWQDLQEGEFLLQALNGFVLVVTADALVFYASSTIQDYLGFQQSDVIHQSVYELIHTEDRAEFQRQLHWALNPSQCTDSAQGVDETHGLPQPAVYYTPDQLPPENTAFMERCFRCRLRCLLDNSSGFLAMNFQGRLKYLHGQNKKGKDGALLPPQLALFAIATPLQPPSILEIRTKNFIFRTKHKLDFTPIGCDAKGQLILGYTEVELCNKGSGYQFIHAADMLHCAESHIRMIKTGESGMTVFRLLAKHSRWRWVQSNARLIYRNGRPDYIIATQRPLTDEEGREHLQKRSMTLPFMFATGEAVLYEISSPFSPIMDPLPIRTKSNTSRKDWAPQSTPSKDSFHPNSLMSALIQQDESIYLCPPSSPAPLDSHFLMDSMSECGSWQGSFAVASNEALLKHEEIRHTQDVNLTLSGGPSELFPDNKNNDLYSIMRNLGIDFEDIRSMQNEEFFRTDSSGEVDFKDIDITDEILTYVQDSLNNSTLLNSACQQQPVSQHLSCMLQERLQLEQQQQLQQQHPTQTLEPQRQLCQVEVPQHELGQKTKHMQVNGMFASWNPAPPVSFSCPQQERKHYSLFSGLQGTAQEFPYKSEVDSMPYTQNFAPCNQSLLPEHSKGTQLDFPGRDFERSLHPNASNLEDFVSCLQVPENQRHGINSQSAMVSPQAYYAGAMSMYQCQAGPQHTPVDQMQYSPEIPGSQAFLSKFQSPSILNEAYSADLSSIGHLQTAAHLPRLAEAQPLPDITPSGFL

[2] = test system: DMBA-induced mammary tumor; assay: DMBA-induced rat mammary tumor model; format: in vivo, female Sprague-Dawley rats; conditions: 1.0 mg/kg every 2 days; for Mammary tumor growth in DMBA-induced rats: tumor volumes over 21 days
[3] = test system: T47D human breast cancer cells; assay: Estrogenic and antiestrogenic activity in T47D cells (proliferation, alone or with 1 nM E2); format: cell-based; conditions: in combination with 1 nM E2
From the text: In a separate study, it was also shown that the same compounds and other C-substituted DIMs were also antiestrogenic in T47D cells, and these include the C-p-phenol and C-p-anisole compounds in which R1═CH3 (methyl) (i.e., NMe-CPh-OHDIM and NMe-CPh-MeODIM, respectively) (FIG. 3).

[4] = Body/organ weights, EROD and histopathology in the DMBA-induced rat study; format: in vivo, female Sprague-Dawley rats; conditions: 1.0 mg/kg every 2 days
[5] = test system: MCF-7 human breast cancer cells; assay: Proliferation of MCF-7 breast cancer cells, alone or with 1 nM E2; format: cell-based; conditions: for E2-induced MCF-7 cell proliferation: co-treated with 1 nM E2; for Growth of MCF-7 cells, compound alone: up to 10 μM
[6] = test system: HT-29 human colon cancer cells; assay: Cell proliferation and apoptosis of HT-29 colon cancer cells; format: cell-based
Procedure: (§1) Studies with HT-29 human colon cancer cells also indicate that DIM and related analogs protect against colon cancer. HT-29 cells were grown in DMEM and serum and treated with 25 μM DIM and 4,4′-dichloroDIM. After 72 hr, there was a 73 and 92% decrease in cell proliferation, respectively, and these antiproliferative effects could be observed with cell concentrations as low as 10 μM.
as §1, with “Preliminary studies” for “Studies”, “hours,” for “hr,”, “with” for “with cell”

[7] = test system: J82 human bladder cancer cell line; assay: Cell proliferation of J82 bladder cancer cells; format: cell-based; conditions: 0.1-10 μM, cell growth over 4-10 days
Procedure: (§2) Initial studies used TCCSUP and J82 human bladder cancer cell lines that were maintained in RPMI culture media supplemented with 10% fetal bovine serum. Cell proliferation studies were carried out in multi-well plates, and compounds (in DMSO, 0.1% vol./vol.) were added and cell growth was determined over a period of 4 10 days. The growth inhibitory properties of DIM and related analogs were determined using the following prototypical compounds: DIM, 5,5′-dimethylDIM (5-Me-DIM), 2,2′-dimethylDIM (2-Me-DIM), and 5,5′-dichloroDIM (5-Cl-DIM) at concentrations from 0.1 10 μM.
as §2, with “Initial studies on the possible protective role for DIM compounds in bladder cancer used TCCSUP” for “Initial studies used TCCSUP”

[8] = test system: TCCSUP human bladder cancer cell line; assay: Cell proliferation of TCCSUP bladder cancer cells; format: cell-based; conditions: for Proliferation of TCCSUP human bladder cancer cells: 0.1-10 μM, cell growth over 4-10 days; for Lowest concentration at which TCCSUP cells were inhibited: lowest concentration tested
Procedure: as §2
as §2, with “Initial studies on the possible protective role for DIM compounds in bladder cancer used TCCSUP” for “Initial studies used TCCSUP”

Structure (SMILES): Cc1ccc2c(Cc3c[nH]c4cc(C)ccc34)c[nH]c2c1 [6,6′-dimethlyDIM]
- MAPKK-induced (pSRE) activity [1]: inhibited MAPKK-induced activity

Structure (SMILES): Cn1cc(C(c2ccc(Cl)cc2)c2cn(C)c3ccccc23)c2ccccc21
- IC50 (Ah receptor): 0.55 nM

Structure (SMILES): COc1ccc(C(c2cn(C)c3ccccc23)c2cn(C)c3ccccc23)cc1 [NMe-C-Ph-MeODIM]
- Mammary tumor growth in DMBA-induced rats [2]: Illustrates inhibition of DMBA-induced mammary tumor growth in female Sprague-
- Antiestrogenic activity in T47D cells [3]: antiestrogenic

Structure (SMILES): c1ccc(C(c2c[nH]c3ccccc23)c2c[nH]c3ccccc23)cc1 [C-PhDIM]
- Tumor volume [2]: 1025 +/− 245* mm3
- Tumor weight [2]: 1.40 +/− 0.4* g
- Mammary tumor growth in DMBA-induced rats [2]: potent inhibition of mammary tumor growth
- Mammary tumor growth in DMBA-induced rats ([2]; listed as C-phenylDIM): potent inhibition of mammary tumor growth
- Mammary tumor growth in DMBA-induced rats ([2]; listed as C—PhDIM): Illustrates inhibition of DMBA-induced mammary tumor growth in female Sprague-
- Antiestrogenic activity in T47D cells [3]: antiestrogenic
- Changes in body/organ weights or tissue histopathology [4]: not accompanied by changes in body/organ weights or altered tissue histopathology
- EROD [4]: 309 ± 102 pmol/mg/min
- Heart [4]: 0.38 +/− 0.03 % body weight
- Kidney [4]: 0.33 +/− 0.01 % body weight
- Liver [4]: 3.2 +/− 0.1 % body weight
- Spleen [4]: 0.33 +/− 0.05 % body weight
- Uterus [4]: 0.19 +/− 0.02 % body weight
- Changes in body/organ weights or tissue histopathology ([4]; listed as C-phenylDIM): not accompanied by changes in body/organ weights on altered tissue histopathology
- E2-induced MCF-7 cell proliferation ([5]; listed as C-phenylDIM): hormone-induced proliferative response was inhibited
- E2-induced MCF-7 cell proliferation ([5]; listed as C—C6H5): significant inhibition of E2-induced cell proliferation
- Growth of MCF-7 cells, compound alone ([5]; listed as C-phenylDIM): did not induce breast cancer cell proliferation
- Growth of MCF-7 cells, compound alone ([5]; listed as C—C6H5): do not affect growth
- IC50 (Ah receptor): 98 nM

Structure (SMILES): Clc1cccc2[nH]cc(Cc3c[nH]c4cccc(Cl)c34)c12 [4,4′-dichloroDIM]
- Lowest concentration at which antiproliferative effects could be observed in HT-29 cells [6]: 10 µM
- Programmed cell death accompanying growth inhibition in HT-29 cells [6]: programmed cell death, or apoptosis; also recorded: programmed cell death or apoptosis
- Decrease in HT-29 cell proliferation ([6]; 25 μM, after 72 hr): 92%

Structure (SMILES): Cn1cc(C(c2ccc(C(F)(F)F)cc2)c2cn(C)c3ccccc23)c2ccccc21 [NMe-C-Ph-CF3DIM]
- Mammary tumor growth in DMBA-induced rats [2]: Illustrates inhibition of DMBA-induced mammary tumor growth in female Sprague-

Structure (SMILES): Cn1cc(C(c2ccc(O)cc2)c2cn(C)c3ccccc23)c2ccccc21 [NMe-C-PhOHDIM]
- Mammary tumor growth in DMBA-induced rats [2]: Illustrates inhibition of DMBA-induced mammary tumor growth in female Sprague-
- Antiestrogenic activity in T47D cells [3]: antiestrogenic

Structure (SMILES): Clc1ccc2[nH]cc(Cc3c[nH]c4ccc(Cl)cc34)c2c1 [5,5′-dichloroDIM, 5,5′-dichloro-diindolylmethane]
- Proliferation of J82 human bladder cancer cells [7]: significantly inhibited
- Proliferation of TCCSUP human bladder cancer cells [8]: significantly inhibited
- Lowest concentration at which TCCSUP cells were inhibited [8]: 0.1 µM

Structure (SMILES): Cn1cc(C(c2ccc(-c3ccccc3)cc2)c2cn(C)c3ccccc23)c2ccccc21 [NMe-C-BiphDIM]
- Mammary tumor growth in DMBA-induced rats [2]: Illustrates inhibition of DMBA-induced mammary tumor growth in female Sprague-
- IC50 (Ah receptor; read-out: IC50 competitive binding values, Ah receptor): 1.8 nM

Structure (SMILES): Cc1ccc(C(c2cn(C)c3ccccc23)c2cn(C)c3ccccc23)cc1 [NMe-C-PhMeDIM]
- Mammary tumor growth in DMBA-induced rats [2]: Illustrates inhibition of DMBA-induced mammary tumor growth in female Sprague-

Structure (SMILES): FC(F)(F)c1ccc(C(c2c[nH]c3ccccc23)c2c[nH]c3ccccc23)cc1 [C—Ph—CF3DIM]
- Mammary tumor growth in DMBA-induced rats [2]: Illustrates inhibition of DMBA-induced mammary tumor growth in female and C—Ph—CF3DIM

Structure (SMILES): Cn1cc(C(c2ccccc2)c2cn(C)c3ccccc23)c2ccccc21 [NMe-C-PhDIM]
- Mammary tumor growth in DMBA-induced rats [2]: Illustrates inhibition of DMBA-induced mammary tumor growth in female Sprague-

Structure (SMILES): Cc1ccc2[nH]cc(Cc3c[nH]c4ccc(C)cc34)c2c1 [5,5′-dimethylDIM, 5,5′-dimethyl-diindolylmethane]
- Proliferation of J82 human bladder cancer cells [7]: significantly inhibited
- Proliferation of TCCSUP human bladder cancer cells [8]: significantly inhibited
- Lowest concentration at which TCCSUP cells were inhibited [8]: 0.1 µM
- MAPKK-induced (pSRE) activity [1]: inhibited MAPKK-induced activity

Structure (SMILES): Cc1[nH]c2ccccc2c1Cc1c(C)[nH]c2ccccc12 [2,2′-dimethylDIM, 2,2′-dimethyl-diindolylmethane]
- Proliferation of J82 human bladder cancer cells [7]: significantly inhibited
- Proliferation of TCCSUP human bladder cancer cells [8]: significantly inhibited
- Lowest concentration at which TCCSUP cells were inhibited [8]: 0.1 µM

Structure (SMILES): CC(c1c[nH]c2ccccc12)c1c[nH]c2ccccc12 [C-methylDIM]
- Antiestrogenic activity in T47D cells [3]: antiestrogenic
- E2-induced MCF-7 cell proliferation [5]: hormone-induced proliferative response was inhibited
- E2-induced MCF-7 cell proliferation ([5]; listed as C—CH3): significant inhibition of E2-induced cell proliferation
- Growth of MCF-7 cells, compound alone [5]: did not induce breast cancer cell proliferation
- Growth of MCF-7 cells, compound alone ([5]; listed as C—CH3): do not affect growth
- IC50 (Ah receptor): 11 nM
